The source of these data is patent US20110263521A1, “PHARMACEUTICAL OR COSMETIC PREPARATIONS FOR TOPICAL AND/OR PARENTERAL APPLICATION, PREPARATION METHODS THEREOF AND USE OF SAME” (priority 2007, published 2011).

Series [1] has as its target T1, hyaluronidase of bovine origin (Bos taurus, UniProt Q2YDK3).
T1 sequence (Q2YDK3 36-553): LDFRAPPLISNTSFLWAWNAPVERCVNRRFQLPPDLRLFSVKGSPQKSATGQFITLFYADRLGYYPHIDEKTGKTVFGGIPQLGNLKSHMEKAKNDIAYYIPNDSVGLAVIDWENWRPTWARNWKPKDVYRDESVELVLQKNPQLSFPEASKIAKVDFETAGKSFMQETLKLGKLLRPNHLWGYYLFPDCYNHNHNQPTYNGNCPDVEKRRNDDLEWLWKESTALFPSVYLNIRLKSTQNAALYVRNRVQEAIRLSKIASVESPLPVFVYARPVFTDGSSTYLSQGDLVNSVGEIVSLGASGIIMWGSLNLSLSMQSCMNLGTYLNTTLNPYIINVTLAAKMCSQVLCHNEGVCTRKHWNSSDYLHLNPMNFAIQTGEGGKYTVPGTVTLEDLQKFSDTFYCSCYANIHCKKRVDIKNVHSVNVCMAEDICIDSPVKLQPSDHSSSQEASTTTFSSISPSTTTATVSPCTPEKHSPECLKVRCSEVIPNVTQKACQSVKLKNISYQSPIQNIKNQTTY
As to the kind of experiment: Inhibitory effect of glycyrrhizin on hyaluronidase activity (turbidimetry of nonhydrolysed hyaluronic acid). The settings on record: without preincubation with the enzyme; read-out: concentration of GLZ which gives 50% inhibition (IC50) of the hyaluronidase activity. Type of series: biochemical. The procedure:
Determination of the IC50 of GLZ, with or without Preincubation at 37° C.:
GLZ, at various concentrations, is or is not preincubated for 20 minutes at 37° C. in the presence of the enzyme. The enzyme reaction is triggered by adding the hyaluronic acid solution (time T0). After incubation for 20 minutes, the nonhydrolysed hyaluronic acid is precipitated by adding acidic bovine albumin solution.
In order to verify that the preincubation step has no effect on the stability of the hyaluronidase, an aliquot of a solution of the enzyme is placed at 37° C. for 20 minutes. Another aliquot is conserved in an ice bath for 19 minutes, and is then incubated at 37° C. for 1 minute. A solution of hyaluronic acid is then added to each aliquot (TO). After incubation for 15, 30 or 45 minutes, the nonhydrolysed hyaluronic acid is precipitated by addition of acidic bovine albumin solution.
After the precipitation step, the turbidimetry of the solutions is determined on a spectrophotometer at a wavelength of 600 nm. The optical density (OD) of these solutions is subtracted from the OD of a control solution of hyaluronic acid (of the same concentration) not hydrolysed by the enzyme. This difference in OD, which is inversely proportional to the concentration of hyaluronic acid, is used to measure the activity of the hyaluronidase.

The conditions of series [2]: humans; cited from earlier work.

Consider `CC1(C)[C@@H](O[C@H]2O[C@H](C(=O)O)[C@@H](O)[C@H](O)[C@H]2O[C@@H]2O[C@H](C(=O)O)[C@@H](O)[C@H](O)[C@H]2O)CC[C@]2(C)[C@H]3C(=O)C=C4[C@@H]5C[C@@](C)(C(=O)O)CC[C@]5(C)CC[C@@]4(C)[C@]3(C)CC[C@@H]12` [GLZ, Glycyrrhizin], for which, in series [1], the IC50 worked out at 400 µM.
For hyaluronic acid, the “excretion in the urine” value in series [2] is listed as “less than 1 % of total clearance”.
